The term Emax denotes the maximal effect, on the per cent scale that the assay sets. The IC50 is the concentration needed to halve the response being measured. The low end stands for inhibition by little substance, the high end for a need for much substance. By DC50 is commonly meant the midpoint of the concentration-degradation curve. Higher therefore signals a less potent degrader. The term Ki denotes a dissociation constant, usually derived from enzyme kinetics or from competition with a known ligand. High values mean weaker binding, low ones tighter binding. In general, half-life refers to the time in which the quantity being followed falls by half. Read a low half-life as rapid decline. By AUC is commonly meant the area under the concentration-time curve, a measure of exposure. High values mean high exposure, low ones low exposure. As a reminder, the TGI is how far tumour growth fell short of that in controls.

The text below walks through data of ChEMBL document CHEMBL5223100, “Homobivalent, Trivalent, and Covalent PROTACs: Emerging Strategies for Protein Degradation” (J Med Chem, 2022).

Data set [1] concerns the target T1, Tyrosine-protein kinase BTK (Homo sapiens, UniProt Q06187). The experiment in a line: Induction of BTK degradation in human Ramos cells assessed as maximum degradation at 300 nM relative to control. In kind it is cell-based.
The subject of data set [2] is HeLa. The experiment in a line: Antiproliferative activity against human HeLa cells. In kind it is functional, cell-based.
Data set [3] addresses T2, Bromodomain-containing protein 4 (Homo sapiens, UniProt O60885). The experiment in a line: Induction of BRD4 degradation in human HeLa cells assessed as maximum degradation at 10 nM after 12 hrs relative to control. In kind it is cell-based.
The target of data set [4] is T1, Tyrosine-protein kinase BTK. The experiment in a line: Induction of BTK degradation in human MINO cells. The class given is cell-based.
For data set [5] the target is unchanged. The experiment in a line: Induction of BTK degradation in human MINO cells assessed as maximum degradation relative to control. The class given is cell-based.
For data set [6], the target named is Androgen receptor (Homo sapiens) (UniProt P10275). The experiment in a line: Induction of AR degradation in human 22Rv1 cells assessed as maximum degradation at 10 uM after 8 hrs relative to control. The class given is cell-based.
Sequence of Androgen receptor (Homo sapiens) (P10275 whole entry): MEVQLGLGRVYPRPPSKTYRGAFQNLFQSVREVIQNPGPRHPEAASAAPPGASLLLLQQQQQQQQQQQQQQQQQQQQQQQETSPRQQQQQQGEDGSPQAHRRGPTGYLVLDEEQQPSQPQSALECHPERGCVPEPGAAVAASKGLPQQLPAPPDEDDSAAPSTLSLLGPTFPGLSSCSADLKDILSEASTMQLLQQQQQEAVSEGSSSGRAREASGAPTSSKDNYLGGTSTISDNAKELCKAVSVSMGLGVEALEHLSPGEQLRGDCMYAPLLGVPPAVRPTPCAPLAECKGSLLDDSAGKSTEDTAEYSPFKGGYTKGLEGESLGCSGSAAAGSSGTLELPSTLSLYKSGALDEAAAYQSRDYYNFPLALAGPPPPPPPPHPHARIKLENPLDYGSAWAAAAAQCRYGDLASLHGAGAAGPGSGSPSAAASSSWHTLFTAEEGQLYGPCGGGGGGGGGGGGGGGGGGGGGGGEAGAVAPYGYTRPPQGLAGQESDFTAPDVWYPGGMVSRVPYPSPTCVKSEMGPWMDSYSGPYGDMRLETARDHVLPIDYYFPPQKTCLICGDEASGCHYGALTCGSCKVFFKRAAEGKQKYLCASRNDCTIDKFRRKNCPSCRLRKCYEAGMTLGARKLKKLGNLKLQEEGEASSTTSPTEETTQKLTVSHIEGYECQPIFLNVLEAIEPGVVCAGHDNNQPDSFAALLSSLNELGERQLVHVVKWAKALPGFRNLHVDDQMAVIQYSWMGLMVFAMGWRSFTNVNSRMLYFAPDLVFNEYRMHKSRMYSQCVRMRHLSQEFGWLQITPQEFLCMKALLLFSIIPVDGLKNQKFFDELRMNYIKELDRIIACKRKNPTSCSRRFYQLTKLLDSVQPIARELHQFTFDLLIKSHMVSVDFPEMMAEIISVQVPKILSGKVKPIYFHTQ
Data set [7] has as its system A549. The experiment in a line: Antiproliferative activity against human A549 cells. In kind it is functional, cell-based.
The subject of data set [8] is Huh-7. The experiment in a line: Antiproliferative activity against human Huh-7 cells. In kind it is functional, cell-based.
For data set [9], the system named is HepG2. The experiment in a line: Antiproliferative activity against human HepG2 cells. In kind it is functional, cell-based.
Data set [10] concerns the target E3 ubiquitin-protein ligase Mdm2 (Homo sapiens, UniProt Q00987). The experiment in a line: Displacement of p53 from human MDM2 by HTRF assay. In general terms: In TR-FRET formats the signal depends on donor and acceptor labels being close together.
Data set [11] relates to HCT-116. The experiment in a line: Antiproliferative activity against human HCT-116 cells. In kind it is functional, cell-based.
Data set [12] concerns HCT-116. The experiment in a line: Antiproliferative activity against p53 knockout human HCT-116 cells. In kind it is functional, cell-based.
Data set [13] is described as follows: Half life in mouse. In kind it is ADME, organism-based. Conditions: in vivo.
A short description of data set [14]: AUC in mouse. The class given is ADME, organism-based. Conditions: in vivo.
Data set [15] has as its system A549. The experiment in a line: Antitumor activity against human A549 cells xenografted model assessed as tumor growth inhibition at 30 mg/kg. The class given is functional. Conditions: read-out: TGI.
The test system of data set [16] is MCF7. The experiment in a line: Antitumor activity against human MCF7 cells xenografted in mouse assessed as tumor growth inhibition. The class given is functional. For orientation: Xenograft models place foreign cells or tissue in a host animal.
For data set [17], the target named is Transcription intermediary factor 1-alpha (Homo sapiens, UniProt O15164). The experiment in a line: Inhibition of His-tagged TRIM24 (unknown origin) expressed in Escherichia coli BL21(DE3)pLysS competent cells using biotinylated-H3K23ac peptide as substrate incubated for 30 mins by Alphascreen assay. (Alpha assays give light when donor and acceptor beads are brought close together.)
Sequence of Transcription intermediary factor 1-alpha (O15164 whole entry): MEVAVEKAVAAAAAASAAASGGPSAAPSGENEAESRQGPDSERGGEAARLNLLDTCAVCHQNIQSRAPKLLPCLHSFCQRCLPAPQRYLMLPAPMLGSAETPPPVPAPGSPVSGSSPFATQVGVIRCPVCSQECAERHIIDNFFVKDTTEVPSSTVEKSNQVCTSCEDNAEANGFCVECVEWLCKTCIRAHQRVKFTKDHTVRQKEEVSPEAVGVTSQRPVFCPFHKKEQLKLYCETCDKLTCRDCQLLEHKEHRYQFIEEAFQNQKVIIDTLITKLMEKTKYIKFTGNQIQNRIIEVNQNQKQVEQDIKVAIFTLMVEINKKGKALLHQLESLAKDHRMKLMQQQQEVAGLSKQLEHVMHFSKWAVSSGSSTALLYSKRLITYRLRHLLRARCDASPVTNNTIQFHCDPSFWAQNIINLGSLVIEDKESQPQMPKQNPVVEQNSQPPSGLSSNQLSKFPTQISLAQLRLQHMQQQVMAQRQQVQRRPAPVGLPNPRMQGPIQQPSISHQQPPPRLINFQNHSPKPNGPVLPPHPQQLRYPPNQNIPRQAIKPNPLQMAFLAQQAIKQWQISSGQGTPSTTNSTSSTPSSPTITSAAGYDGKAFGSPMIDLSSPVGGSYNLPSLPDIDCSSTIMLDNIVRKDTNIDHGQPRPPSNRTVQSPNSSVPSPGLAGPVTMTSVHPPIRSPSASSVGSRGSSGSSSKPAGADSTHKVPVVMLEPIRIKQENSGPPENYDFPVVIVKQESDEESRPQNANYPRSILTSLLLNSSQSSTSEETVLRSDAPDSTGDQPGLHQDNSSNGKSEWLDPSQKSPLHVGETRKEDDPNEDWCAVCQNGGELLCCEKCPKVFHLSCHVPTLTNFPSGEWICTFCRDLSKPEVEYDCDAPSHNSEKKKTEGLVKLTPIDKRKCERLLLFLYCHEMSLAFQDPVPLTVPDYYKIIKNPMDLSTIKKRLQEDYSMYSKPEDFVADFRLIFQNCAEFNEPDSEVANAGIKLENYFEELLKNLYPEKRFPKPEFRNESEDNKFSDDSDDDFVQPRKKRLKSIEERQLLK

Data set [18] concerns the target Transcription intermediary factor 1-alpha (Homo sapiens) (UniProt O15164). The experiment in a line: Induction of TRIM24 degradation in HEK293FT cells assessed as maximum degradation at 5 uM relative to control. The class given is cell-based.
Data set [19] has as its system MV4-11. The experiment in a line: Antiproliferative activity against human MV4-11 cells.
Data set [20] deals with Bromodomain-containing protein 2 (Homo sapiens, UniProt P25440). The experiment in a line: Induction of BRD2 degradation in HEK293 cells after 4 hrs. The class given is cell-based.
Sequence of Bromodomain-containing protein 2 (P25440 whole entry): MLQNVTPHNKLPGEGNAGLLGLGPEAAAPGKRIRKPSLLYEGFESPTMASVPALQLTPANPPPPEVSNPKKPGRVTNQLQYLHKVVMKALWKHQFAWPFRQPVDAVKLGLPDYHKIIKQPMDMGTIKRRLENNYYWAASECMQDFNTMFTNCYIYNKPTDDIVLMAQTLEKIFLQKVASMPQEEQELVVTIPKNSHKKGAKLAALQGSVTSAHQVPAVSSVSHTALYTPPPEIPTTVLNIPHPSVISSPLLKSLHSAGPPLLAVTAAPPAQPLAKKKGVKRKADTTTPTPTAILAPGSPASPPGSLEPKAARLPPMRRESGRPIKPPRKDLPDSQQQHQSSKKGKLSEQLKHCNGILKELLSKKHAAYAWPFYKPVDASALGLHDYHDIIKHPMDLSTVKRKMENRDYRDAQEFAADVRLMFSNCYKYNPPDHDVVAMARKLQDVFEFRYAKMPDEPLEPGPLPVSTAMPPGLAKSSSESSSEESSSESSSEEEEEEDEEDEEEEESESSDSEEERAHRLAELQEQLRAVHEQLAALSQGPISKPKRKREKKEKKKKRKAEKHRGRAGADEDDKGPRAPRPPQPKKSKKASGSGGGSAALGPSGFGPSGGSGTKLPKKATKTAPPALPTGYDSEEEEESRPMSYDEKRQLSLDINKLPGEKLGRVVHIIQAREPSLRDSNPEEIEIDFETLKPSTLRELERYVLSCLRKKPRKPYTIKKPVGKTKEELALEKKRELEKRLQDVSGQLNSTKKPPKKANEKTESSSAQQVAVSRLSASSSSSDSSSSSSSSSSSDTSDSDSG
In data set [21] the target is Bromodomain-containing protein 3 (Homo sapiens, UniProt Q15059). The experiment in a line: Induction of BRD3 degradation in HEK293 cells after 4 hrs. In kind it is cell-based.
Sequence of Bromodomain-containing protein 3 (Q15059 whole entry): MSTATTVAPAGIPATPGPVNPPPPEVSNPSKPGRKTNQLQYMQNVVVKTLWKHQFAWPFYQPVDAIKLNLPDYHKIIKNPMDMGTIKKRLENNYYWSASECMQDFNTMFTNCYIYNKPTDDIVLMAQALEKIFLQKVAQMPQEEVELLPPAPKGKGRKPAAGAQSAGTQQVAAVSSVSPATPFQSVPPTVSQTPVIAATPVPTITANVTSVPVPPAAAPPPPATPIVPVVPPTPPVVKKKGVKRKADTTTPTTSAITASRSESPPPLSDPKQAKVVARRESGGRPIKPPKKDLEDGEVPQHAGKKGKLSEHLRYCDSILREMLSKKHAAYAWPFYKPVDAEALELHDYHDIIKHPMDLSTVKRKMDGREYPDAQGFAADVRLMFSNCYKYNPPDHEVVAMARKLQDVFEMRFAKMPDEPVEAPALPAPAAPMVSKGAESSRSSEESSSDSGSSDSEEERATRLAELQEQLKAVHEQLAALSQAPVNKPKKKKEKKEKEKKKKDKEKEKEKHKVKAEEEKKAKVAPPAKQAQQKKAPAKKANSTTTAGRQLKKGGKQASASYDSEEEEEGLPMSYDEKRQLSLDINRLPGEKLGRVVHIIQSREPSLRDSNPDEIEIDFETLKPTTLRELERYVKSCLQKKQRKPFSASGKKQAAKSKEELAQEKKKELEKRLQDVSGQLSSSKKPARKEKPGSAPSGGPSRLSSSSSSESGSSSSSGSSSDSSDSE
For data set [22], the target named is T2, Bromodomain-containing protein 4. The experiment in a line: Induction of BRD4 degradation in HEK293 cells after 4 hrs. In kind it is cell-based.

T1 sequence (Q06187 whole entry): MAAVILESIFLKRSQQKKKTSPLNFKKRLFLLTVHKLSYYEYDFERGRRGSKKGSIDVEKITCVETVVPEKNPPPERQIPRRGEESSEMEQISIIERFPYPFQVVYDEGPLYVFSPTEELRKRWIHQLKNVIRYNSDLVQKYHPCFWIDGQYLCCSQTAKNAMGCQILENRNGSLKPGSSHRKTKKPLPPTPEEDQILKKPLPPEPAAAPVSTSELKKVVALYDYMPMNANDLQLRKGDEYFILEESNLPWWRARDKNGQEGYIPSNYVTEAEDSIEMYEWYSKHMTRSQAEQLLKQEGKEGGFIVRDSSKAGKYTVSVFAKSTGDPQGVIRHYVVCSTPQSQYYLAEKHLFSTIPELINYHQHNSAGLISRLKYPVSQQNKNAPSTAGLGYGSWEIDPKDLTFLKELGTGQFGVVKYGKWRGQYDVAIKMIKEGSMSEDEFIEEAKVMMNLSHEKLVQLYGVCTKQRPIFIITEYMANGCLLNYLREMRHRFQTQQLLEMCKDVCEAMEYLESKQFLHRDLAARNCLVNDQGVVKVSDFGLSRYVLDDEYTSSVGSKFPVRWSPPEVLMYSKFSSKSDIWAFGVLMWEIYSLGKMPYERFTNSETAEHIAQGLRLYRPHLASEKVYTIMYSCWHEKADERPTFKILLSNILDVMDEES
Sequence of E3 ubiquitin-protein ligase Mdm2 (Q00987 whole entry): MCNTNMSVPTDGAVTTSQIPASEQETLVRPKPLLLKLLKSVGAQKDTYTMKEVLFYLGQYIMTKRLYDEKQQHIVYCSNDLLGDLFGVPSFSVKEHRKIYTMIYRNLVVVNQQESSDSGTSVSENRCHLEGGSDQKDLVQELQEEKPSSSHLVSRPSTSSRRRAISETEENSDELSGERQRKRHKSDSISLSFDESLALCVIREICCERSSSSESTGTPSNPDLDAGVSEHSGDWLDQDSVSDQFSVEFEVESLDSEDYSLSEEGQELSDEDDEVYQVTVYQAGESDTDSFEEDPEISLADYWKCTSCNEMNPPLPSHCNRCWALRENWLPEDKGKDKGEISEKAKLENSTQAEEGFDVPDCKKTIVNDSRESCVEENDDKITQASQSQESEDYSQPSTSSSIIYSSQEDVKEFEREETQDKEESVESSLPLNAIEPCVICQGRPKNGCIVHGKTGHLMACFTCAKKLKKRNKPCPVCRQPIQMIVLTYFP
Sequence of Transcription intermediary factor 1-alpha (Homo sapiens) (O15164 whole entry): as the sequence (O15164 whole entry) above

As for `CN[C@@H](C)C(=O)N[C@H](C(=O)N1C[C@@H](NC(=O)COCCOCCOCCOCCN2CCN(C/C=C/C(=O)N3CCC[C@@H](n4nc(-c5ccc(Oc6ccccc6)cc5)c5c(N)ncnc54)C3)CC2)C[C@H]1C(=O)N[C@H]1CCCc2ccccc21)C1CCCCC1`, the Emax in data set [1] was found to be 100%.

For `Cc1ncsc1-c1ccc([C@H](C)NC(=O)[C@@H]2C[C@@H](O)CN2C(=O)[C@@H](NC(=O)COCCCOCCNC(=O)C[C@@H]2N=C(c3ccc(Cl)cc3)c3c(sc(C)c3C)-n3c(C)nnc32)C(C)(C)C)cc1`, in data set [2], the IC50 was 183 nM. Further, the Emax in [3] is 100%.

`Nc1ncnc2c1c(-c1ccc(Oc3ccccc3)cc1)nn2[C@@H]1CCCN(C(=O)/C=C/CCCCOCCOCCOCCOCCOc2cccc3c2C(=O)N(C2CCC(=O)NC2=O)C3=O)C1` (some centres not stated): half-maximal degradation in data set [4] (DC50) was put at 1.9 nM. Also, the Emax in data set [5] came to 88%.

With `CC1(C)[C@H](NC(=O)c2ccc(OCC(=O)NCCCOCCOCCOCCCN(C(=O)CCl)C(C(=O)NCc3ccccc3)c3ccc(Cl)c(Cl)c3)cc2)C(C)(C)[C@H]1Oc1ccc(C#N)c(Cl)c1` (some centres not stated), in data set [6], the Emax was found to be 90%.

Regarding `Nc1ncnc2c1c(-c1ccc(Oc3ccccc3)cc1)nn2[C@@H]1CCCN(C(=O)CCCCCCOCCOCCOCCOCCOc2cccc3c2C(=O)N(C2CCC(=O)NC2=O)C3=O)C1` (some centres not stated), half-maximal degradation in data set [4] (DC50) was put at 2.2 nM. In addition, in data set [5], the Emax was 97%.

Take `C[C@H]1[C@H](C)CC[C@]2(C(=O)NCCOCCOCCOCCNc3cccc4c3C(=O)N(C3CCC(=O)NC3=O)C4=O)CC[C@]3(C)C(=CC[C@@H]4[C@@]5(C)CC[C@H](O)C(C)(C)[C@@H]5CC[C@]43C)[C@H]12` (some centres not stated): the IC50 came to 230 nM in data set [7], 390 nM in [8] and 380 nM in [9].

In data set [10], `CCOc1cc(C(C)(C)C)ccc1C1=N[C@@H](c2ccc(Cl)cc2)[C@@H](c2ccc(Cl)cc2)N1C(=O)N1CCN(CC(=O)NCCOCCOCCOCCNC(=O)CN2CCN(C(=O)N3C(c4ccc(C(C)(C)C)cc4OCC)=N[C@H](c4ccc(Cl)cc4)[C@@H]3c3ccc(Cl)cc3)CC2=O)C(=O)C1` returned a Ki of 90 nM. Further, the IC50 in data set [7] was 580 nM; in [11] it was 1100 nM; in data set [12], 21000 nM. The half-life in data set [13] is 9.6 h. The compound further returned an AUC in [14] of 42800 ng·h/mL. Also, the inhibition in vivo at 30 mg/kg in data set [15] came out at 52.4%.

As to `Cc1ncsc1-c1ccc(CNC(=O)[C@@H]2C[C@@H](O)CN2C(=O)[C@@H](NC(=O)COCCOCCOCCNC(=O)C[C@@H]2N=C(c3ccc(Cl)cc3)c3c(sc(C)c3C)-n3c(C)nnc32)C(C)(C)C)cc1`, the TGI in data set [16] was determined as 59.8%.

On to `CCCOc1cccc(Oc2cc3c(cc2NS(=O)(=O)c2cccc(C(=O)NCCOCCOCCOCC(=O)N[C@@H](C(=O)N4C[C@@H](O)C[C@@H]4C(=O)NCc4ccc(-c5scnc5C)cc4)C(C)(C)C)c2)n(C)c(=O)n3C)c1`, for which the IC50 in data set [17] came to 338 nM. In [18], the Emax was found to be 72%.

Regarding `Cc1ncsc1-c1ccc(CNC(=O)[C@@H]2C[C@@H](O)CN2C(=O)[C@@H](NC(=O)OCC(C)(COCCOCCOCCNC(=O)C[C@@H]2N=C(c3ccc(Cl)cc3)c3c(sc(C)c3C)-n3c(C)nnc32)COCCOCCOCCNC(=O)C[C@@H]2N=C(c3ccc(Cl)cc3)c3c(sc(C)c3C)-n3c(C)nnc32)C(C)(C)C)cc1`, in data set [19], the IC50 was 1.1 nM. The DC50 in data set [20] was 1.1 nM; in data set [21], 3.3 nM; in [22], 0.7 nM.

For the compound `CC(C)(/C=C(\C#N)C(=O)N1CCC[C@@H](n2nc(-c3ccc(Oc4ccccc4)cc3)c3c(N)ncnc32)C1)CCCOCCOCCOCCOCCOc1cccc2c1C(=O)N(C1CCC(=O)NC1=O)C2=O` (some centres not stated), half-maximal degradation in data set [4] (DC50) was put at 6 nM. The Emax in data set [5] is 85%.
